Test results taken from ChEMBL document CHEMBL1201862, “PubChem BioAssay data set” (2004).
The source made the active and inactive calls.

How the values were obtained:
[1] = Trypanosoma cruzi growth suppression in host cells – NIH3T3 host cells, beta-gal luminescence, confirmation (AID 2044); type: functional, cell-based;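 note: intracellular parasites grown in NIH/3T3 mouse fibroblasts as host cells; luminescent beta-galactosidase reporter signal from transgenic T. cruzi replicating inside host cells; inhibitors lower the luminescence signal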
[2] = NIH3T3 cell viability loss – ATP luminescence, mouse fibroblasts, counter-screen, dose response (AID 2010); type: functional, cell-based;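 note: cells exposed to compound for about 90 hours before reading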
[3] = target: T1, CAAX prenyl protease 2 (Saccharomyces cerevisiae S288c, UniProt Q03530); type: biochemical
T1 sequence (Q03530 whole entry): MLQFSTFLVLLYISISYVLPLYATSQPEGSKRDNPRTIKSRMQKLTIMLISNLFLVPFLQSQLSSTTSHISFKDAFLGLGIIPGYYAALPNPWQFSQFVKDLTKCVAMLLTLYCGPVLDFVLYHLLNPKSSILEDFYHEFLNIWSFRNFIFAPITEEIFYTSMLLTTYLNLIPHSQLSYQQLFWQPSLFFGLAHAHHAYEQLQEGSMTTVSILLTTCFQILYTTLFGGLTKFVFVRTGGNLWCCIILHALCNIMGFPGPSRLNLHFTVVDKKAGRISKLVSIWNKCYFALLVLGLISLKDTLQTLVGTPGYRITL

[4] = target: Delta-type opioid receptor (Homo sapiens, UniProt P41143); test: Counterscreen for agonists of heterodimerization of the mu 1 (OPRM1) and delta 1 (OPRD1) opioid receptors: Luminescence-based cell-based high throughput dose response assay to identify agonists of OPRD1 homodimerization. [Related pubchem assays (depositor defined):AID504326, AID504355, AID504692, AID504904, AID504905]; type: functional
[5] = target: Mu-type opioid receptor (Homo sapiens, UniProt P35372); test: Counterscreen for agonists of heterodimerization of the mu 1 (OPRM1) and delta 1 (OPRD1) opioid receptors: Luminescence-based cell-based high throughput dose response assay to identify agonists of OPRM1 homodimerization.; type: functional;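 note: U2OS cells expressing OPRM1 and beta-arrestin as split beta-galactosidase partners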
Sequence of Mu-type opioid receptor (P35372 whole entry): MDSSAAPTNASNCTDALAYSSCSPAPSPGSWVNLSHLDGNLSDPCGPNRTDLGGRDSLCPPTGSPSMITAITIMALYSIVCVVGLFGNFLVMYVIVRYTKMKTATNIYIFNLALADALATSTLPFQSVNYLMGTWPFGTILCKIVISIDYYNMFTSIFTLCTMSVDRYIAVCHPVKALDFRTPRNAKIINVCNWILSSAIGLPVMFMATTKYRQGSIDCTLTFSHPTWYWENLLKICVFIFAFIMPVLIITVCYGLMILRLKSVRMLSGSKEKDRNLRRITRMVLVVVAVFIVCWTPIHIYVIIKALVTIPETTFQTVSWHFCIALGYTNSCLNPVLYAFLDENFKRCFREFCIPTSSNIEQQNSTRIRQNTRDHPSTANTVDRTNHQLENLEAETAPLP

[6] = target: 5-hydroxytryptamine receptor 5A (Homo sapiens, UniProt P47898); test: Counterscreen for agonists of OPRM1-OPRD1 heterodimerization: luminescence-based cell-based high throughput dose response assay to identify agonists of 5-hydroxytryptamine (serotonin) 5A receptor (HTR5A). [Related pubchem assays (depositor defined):AID504326, AID504355, AID504692, AID504904, AID504905]; type: functional
Sequence of 5-hydroxytryptamine receptor 5A (P47898 whole entry): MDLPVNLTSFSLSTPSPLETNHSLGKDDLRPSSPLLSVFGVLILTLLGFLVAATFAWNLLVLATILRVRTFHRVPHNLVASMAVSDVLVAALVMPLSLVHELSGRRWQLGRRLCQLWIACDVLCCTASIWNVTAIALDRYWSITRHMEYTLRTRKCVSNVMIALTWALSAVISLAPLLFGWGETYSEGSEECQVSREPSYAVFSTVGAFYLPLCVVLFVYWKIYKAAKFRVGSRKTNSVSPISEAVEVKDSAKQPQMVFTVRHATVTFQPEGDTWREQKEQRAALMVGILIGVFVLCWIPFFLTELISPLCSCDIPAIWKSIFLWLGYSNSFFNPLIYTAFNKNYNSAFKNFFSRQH

[7] = target: CAAX prenyl protease 2 (Homo sapiens, UniProt Q9Y256); test: inhibition of Ras-converting CAAX protease Rce1 – biochemical, yeast membranes, quenched-peptide fluorescence, cherry-pick, dose response (AID 588849)
Sequence of CAAX prenyl protease 2 (Homo sapiens, UniProt Q9Y256) (Q9Y256 whole entry): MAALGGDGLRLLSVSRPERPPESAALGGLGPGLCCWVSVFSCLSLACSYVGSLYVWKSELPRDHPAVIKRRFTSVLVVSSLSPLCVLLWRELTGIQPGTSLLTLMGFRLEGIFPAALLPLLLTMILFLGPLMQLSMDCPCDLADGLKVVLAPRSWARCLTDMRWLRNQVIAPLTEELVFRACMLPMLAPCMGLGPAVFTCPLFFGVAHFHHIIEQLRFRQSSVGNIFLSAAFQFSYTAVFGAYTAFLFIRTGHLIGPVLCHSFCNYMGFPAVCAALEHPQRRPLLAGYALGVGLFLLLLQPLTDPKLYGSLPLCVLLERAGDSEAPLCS

[8] = target: Voltage-gated inwardly rectifying potassium channel KCNH2 (Homo sapiens, UniProt Q12809); conditions: Potency;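 note: confirmatory quantitative high-throughput screen measuring inhibition of hERG channel activity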
Sequence of Voltage-gated inwardly rectifying potassium channel KCNH2 (Q12809 whole entry): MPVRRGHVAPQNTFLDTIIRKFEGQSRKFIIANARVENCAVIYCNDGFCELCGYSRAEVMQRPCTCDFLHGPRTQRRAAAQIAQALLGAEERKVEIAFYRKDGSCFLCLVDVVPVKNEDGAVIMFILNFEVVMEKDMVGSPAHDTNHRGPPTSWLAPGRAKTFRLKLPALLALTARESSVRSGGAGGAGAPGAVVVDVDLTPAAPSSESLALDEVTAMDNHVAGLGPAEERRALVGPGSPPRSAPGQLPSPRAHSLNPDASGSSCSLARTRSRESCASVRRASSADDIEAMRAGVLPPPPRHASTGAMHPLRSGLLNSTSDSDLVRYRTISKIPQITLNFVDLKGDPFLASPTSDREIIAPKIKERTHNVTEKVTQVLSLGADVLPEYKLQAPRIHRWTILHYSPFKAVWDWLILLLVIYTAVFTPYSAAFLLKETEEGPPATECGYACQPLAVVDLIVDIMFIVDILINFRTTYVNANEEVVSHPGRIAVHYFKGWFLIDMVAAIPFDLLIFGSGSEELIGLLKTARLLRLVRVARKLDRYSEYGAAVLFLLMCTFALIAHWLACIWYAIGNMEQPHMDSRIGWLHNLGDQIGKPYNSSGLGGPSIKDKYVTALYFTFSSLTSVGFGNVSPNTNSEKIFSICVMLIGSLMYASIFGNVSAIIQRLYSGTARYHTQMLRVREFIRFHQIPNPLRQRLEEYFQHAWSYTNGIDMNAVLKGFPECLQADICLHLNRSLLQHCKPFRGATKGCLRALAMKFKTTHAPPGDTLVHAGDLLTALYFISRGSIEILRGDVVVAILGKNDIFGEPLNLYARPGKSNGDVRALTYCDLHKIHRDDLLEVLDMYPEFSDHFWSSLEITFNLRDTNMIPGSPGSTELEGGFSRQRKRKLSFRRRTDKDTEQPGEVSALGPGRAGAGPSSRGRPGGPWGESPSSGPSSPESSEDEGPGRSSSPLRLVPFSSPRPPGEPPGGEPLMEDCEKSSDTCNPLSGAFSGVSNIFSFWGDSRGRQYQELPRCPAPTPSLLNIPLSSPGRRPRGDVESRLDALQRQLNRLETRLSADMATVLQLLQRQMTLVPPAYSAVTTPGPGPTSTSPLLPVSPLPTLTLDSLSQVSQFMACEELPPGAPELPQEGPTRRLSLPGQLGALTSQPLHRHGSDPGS

[9] = target: Cysteine protease ATG4B (Homo sapiens, UniProt Q9Y4P1); type: functional;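 note: Fluorescence-based dose-response confirmation assay measuring inhibition of ATG4B activity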
Sequence of Cysteine protease ATG4B (Q9Y4P1 whole entry): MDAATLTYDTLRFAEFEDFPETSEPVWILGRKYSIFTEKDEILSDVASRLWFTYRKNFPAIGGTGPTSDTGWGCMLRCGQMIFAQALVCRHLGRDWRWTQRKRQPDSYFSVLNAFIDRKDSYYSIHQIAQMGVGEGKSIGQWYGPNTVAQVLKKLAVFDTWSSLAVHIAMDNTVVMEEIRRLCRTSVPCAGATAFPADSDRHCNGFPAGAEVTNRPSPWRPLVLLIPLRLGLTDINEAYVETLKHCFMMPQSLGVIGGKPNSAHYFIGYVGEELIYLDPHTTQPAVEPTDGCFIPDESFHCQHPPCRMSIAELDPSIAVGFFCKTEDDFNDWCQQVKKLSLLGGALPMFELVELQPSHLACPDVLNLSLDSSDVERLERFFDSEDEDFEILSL

[10] = target: Phospholipase A2 (Homo sapiens, UniProt P04054); type: functional;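 note: confirmatory dose-response counterscreen on phospholipase A2, testing hits that came from an ultra-high-throughput screen for ATG4B inhibitors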
Sequence of Phospholipase A2 (P04054 whole entry, the tested form may be a part): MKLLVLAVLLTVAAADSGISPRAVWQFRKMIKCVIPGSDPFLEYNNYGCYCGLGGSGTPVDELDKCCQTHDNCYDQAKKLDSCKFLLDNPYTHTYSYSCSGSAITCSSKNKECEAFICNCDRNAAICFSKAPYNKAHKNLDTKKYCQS

[11] = target: Envelope glycoprotein gp160 (Human immunodeficiency virus 1, UniProt Q6QLK5); test: cell-free HIV fusion peptide-binding blockers – biochemical, uHTS, fluorescence dequenching, […] (AID 1986)
Sequence of Envelope glycoprotein gp160 (Q6QLK5 whole entry, the tested form may be a part): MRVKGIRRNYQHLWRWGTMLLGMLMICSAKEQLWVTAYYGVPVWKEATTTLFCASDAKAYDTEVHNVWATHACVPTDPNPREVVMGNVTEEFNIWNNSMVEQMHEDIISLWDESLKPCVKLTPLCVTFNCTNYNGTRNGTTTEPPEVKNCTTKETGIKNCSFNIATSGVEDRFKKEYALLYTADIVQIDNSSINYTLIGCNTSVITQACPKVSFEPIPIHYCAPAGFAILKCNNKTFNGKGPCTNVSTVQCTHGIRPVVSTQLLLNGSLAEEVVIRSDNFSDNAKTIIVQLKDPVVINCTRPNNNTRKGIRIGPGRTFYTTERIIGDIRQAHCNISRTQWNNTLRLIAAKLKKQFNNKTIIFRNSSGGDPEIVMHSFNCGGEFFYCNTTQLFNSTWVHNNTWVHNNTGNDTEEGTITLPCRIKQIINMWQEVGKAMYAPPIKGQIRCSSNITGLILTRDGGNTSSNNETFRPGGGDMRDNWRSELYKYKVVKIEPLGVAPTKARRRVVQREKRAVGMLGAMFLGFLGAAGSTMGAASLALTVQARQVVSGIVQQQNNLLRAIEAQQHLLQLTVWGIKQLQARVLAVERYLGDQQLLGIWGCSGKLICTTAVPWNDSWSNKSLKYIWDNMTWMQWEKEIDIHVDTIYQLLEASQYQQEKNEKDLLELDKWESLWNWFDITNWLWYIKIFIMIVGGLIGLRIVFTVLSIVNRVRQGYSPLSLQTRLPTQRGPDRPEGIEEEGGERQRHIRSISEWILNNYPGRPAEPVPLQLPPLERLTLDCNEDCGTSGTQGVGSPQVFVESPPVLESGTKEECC

[12] = NIH-3T3 fibroblast cytotoxicity, dose response, cytotoxicity control, cell-based, fluorescence, Alamar Blue, secondary assay (AID 2327); type: functional;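 note: NIH-3T3 mouse fibroblasts cultured with fluconazole at 8 µg/mL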
[13] = fluconazole-exposed Candida albicans growth modulators – fluorescence, retest, confirmation (AID 2467); type: functional, cell-based
[14] = target: T2, Short transient receptor potential channel 4 (Mus musculus, UniProt Q9QUQ5); test: block of DAMGO-driven TRPC4 calcium entry – cell-based, HEK293 TRPC4/mu-opioid, Fluo-4 calcium, dose response (AID 434942); type: functional;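 note: potency of inhibitors blocking the TRPC4 calcium response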
T2 sequence (Q9QUQ5 whole entry): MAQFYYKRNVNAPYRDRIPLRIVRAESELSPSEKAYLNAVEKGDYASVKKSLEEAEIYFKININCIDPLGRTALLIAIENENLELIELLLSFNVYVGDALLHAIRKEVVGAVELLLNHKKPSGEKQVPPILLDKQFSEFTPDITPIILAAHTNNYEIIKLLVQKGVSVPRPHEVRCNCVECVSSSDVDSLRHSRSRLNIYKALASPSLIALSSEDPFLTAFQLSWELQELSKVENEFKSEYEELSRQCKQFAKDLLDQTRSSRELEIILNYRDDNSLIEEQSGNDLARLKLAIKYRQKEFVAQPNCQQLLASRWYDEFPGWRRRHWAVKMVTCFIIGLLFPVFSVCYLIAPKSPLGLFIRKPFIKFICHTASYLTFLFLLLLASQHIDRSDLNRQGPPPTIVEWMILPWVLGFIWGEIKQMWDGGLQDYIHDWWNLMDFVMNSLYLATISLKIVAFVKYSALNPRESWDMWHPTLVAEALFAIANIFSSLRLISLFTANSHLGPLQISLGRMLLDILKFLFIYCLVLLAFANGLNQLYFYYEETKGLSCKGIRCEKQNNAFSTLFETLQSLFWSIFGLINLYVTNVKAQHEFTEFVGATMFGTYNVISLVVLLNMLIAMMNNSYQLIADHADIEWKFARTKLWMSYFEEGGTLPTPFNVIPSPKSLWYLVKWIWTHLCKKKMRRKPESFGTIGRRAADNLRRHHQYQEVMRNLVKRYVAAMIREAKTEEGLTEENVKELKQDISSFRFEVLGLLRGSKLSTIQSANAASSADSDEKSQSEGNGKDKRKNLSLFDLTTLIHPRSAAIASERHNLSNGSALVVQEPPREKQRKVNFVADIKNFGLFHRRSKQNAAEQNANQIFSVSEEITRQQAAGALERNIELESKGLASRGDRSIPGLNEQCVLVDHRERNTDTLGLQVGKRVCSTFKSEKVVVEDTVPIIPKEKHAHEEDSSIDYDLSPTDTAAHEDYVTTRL

[15] = tested on: Vero; test: viability of Vero cells under compound – cytotoxicity control for flavivirus capping enzyme inhibitors (AID 588742); type: functional; conditions: Chlorocebus sabaeus
[16] = target: Genome polyprotein (dengue virus type 2, UniProt P29990); test: flavivirus cap methylation enzyme inhibition – biochemical, confirmation dose response, primary screen (AID 588689); type: functional
[17] = tested on: Candida albicans; test: fluconazole-resistant Candida strain growth inhibitors – CaCi-8 strain, dry powder, set 4, dose response (AID 488950); type: functional, organism-based
[18] = tested on: Candida albicans; test: C. albicans growth inhibition with fluconazole – CaCi-2 strain, Alamar Blue, dry powder, set 4, dose response (AID 488943); type: functional, organism-based
[19] = tested on: Candida albicans; test: resistant Candida growth with fluconazole co-treatment – CaCi-8 strain, Alamar Blue, dry powder, set 3, dose response (AID 488905); type: functional, organism-based
[20] = tested on: Candida albicans; test: Candida growth inhibition combined with fluconazole – CaCi-2 strain, Alamar Blue, dry powder, set 3, dose response (AID 488907); type: functional, organism-based
[21] = target: Dual specificity protein phosphatase 3 (Homo sapiens, UniProt P51452); test: SAR VHR1 Fluorescent Assay for In Vitro dose response studies Set 3. [Related pubchem assays (depositor defined):AID1654, AID1661, AID1878]; type: functional
Sequence of Dual specificity protein phosphatase 3 (P51452 whole entry, the tested form may be a part): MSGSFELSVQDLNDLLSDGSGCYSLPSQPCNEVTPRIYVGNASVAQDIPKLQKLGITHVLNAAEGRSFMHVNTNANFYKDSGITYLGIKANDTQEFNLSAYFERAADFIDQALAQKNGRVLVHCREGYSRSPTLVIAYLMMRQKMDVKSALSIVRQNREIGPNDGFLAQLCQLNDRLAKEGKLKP

[22] = target: Hexokinase-1 (Homo sapiens, UniProt P19367); test: SAR analysis of small molecule inhibitors of hexokinase domain containing I (HKDC1) in the hexokinase 1 selectivity assay. [Related pubchem assays (depositor defined):AID493160, AID493190]; type: functional
Sequence of Hexokinase-1 (P19367 whole entry, the tested form may be a part): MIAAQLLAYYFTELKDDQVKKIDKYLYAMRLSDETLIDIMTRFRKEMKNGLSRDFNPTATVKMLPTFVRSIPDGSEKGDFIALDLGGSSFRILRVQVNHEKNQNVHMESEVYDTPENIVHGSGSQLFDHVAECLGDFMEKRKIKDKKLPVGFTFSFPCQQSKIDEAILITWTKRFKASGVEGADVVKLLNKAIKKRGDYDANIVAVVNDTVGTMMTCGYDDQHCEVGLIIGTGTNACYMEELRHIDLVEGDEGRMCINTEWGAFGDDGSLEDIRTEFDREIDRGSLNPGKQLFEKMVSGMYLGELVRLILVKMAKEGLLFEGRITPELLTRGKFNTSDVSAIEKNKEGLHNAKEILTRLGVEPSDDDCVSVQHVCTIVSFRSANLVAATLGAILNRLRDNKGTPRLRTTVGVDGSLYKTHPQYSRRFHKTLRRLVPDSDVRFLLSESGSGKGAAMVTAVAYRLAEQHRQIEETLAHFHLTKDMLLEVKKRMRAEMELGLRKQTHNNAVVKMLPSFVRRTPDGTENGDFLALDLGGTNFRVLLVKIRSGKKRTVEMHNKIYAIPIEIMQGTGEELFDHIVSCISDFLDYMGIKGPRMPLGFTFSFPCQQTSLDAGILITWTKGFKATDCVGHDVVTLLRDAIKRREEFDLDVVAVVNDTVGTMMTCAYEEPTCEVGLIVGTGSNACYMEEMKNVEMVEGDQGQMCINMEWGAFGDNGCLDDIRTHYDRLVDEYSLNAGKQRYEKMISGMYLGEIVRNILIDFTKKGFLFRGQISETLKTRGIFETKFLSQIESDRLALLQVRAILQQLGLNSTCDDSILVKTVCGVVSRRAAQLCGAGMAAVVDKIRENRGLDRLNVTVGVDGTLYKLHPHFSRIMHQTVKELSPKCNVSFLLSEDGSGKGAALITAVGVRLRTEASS

[23] = target: T3, Hexokinase HKDC1 (Homo sapiens, UniProt Q2TB90); test: SAR analysis of small molecule inhibitors of hexokinase domain containing I (HKDC1). [Related pubchem assays (depositor defined):AID493160, AID493190]; type: functional
T3 sequence (Q2TB90 whole entry): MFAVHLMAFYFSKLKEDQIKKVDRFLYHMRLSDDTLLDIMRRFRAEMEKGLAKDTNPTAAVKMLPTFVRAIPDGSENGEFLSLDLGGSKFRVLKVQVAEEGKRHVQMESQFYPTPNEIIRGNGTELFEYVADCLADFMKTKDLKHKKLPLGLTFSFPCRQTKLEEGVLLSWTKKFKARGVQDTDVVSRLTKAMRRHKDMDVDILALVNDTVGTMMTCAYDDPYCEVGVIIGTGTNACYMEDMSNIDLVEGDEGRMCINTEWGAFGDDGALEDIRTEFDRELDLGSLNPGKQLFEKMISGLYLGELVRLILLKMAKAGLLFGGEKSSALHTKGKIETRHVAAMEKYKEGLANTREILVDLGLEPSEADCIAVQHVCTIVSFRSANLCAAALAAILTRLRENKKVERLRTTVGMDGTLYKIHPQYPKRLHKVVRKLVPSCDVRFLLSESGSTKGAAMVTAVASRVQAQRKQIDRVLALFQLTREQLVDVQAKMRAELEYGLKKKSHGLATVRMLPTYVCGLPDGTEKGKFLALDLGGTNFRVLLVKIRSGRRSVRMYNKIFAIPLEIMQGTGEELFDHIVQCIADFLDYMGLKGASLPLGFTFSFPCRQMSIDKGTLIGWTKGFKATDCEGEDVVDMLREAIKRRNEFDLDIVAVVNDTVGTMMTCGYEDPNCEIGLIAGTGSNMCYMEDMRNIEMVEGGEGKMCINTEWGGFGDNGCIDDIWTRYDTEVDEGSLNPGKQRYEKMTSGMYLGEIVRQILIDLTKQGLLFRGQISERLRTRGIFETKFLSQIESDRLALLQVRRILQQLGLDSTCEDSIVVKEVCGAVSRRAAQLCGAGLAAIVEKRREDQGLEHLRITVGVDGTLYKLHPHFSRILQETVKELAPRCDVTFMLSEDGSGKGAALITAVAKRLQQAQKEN

[24] = microbe, parasite or virus in culture; type: functional; conditions: Mycobacterium tuberculosis
[25] = target: T4, Bcl-2-related protein A1 (Mus musculus, UniProt Q07440); type: functional;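 note: confirmatory dose–response counterscreen on Bfl-1, used to check hits from a UBC13 polyubiquitin inhibitor campaign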
T4 sequence (Q07440 whole entry): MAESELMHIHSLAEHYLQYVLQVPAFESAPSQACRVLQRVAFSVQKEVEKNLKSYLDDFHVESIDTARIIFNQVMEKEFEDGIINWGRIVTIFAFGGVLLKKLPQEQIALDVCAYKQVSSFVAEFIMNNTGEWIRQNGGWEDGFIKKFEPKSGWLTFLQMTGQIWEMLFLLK

[26] = tested on: Jurkat; test: blockers of NF-kB activation in T cells – Jurkat, luciferase reporter, luminescence, B- and T-cell, dose response (AID 489004); type: functional, cell-based; conditions: Homo sapiens;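 note: NF-kB luciferase reporter Jurkat cells stimulated with PMA plus ionomycin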
[27] = target: T5, Ubiquitin-conjugating enzyme E2 N (Homo sapiens, UniProt P61088); type: functional
T5 sequence (P61088 whole entry): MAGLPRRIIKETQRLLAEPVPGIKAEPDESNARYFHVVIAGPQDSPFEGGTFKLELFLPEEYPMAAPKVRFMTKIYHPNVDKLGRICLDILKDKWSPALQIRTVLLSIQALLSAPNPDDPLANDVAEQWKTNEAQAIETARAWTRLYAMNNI

[28] = HEK-293T viability loss, compound-treated – cell-based, uHTS hits, cytotoxicity control for B/T-cell NF-kB inhibitor project, dose response (AID 489019); type: functional;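 note: IC50 reflects cytotoxicity as loss of cell viability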
[29] = target: T5, Ubiquitin-conjugating enzyme E2 N; type: functional; remark: listed apart in the source
[30] = tested on: INS1; test: INS-1E survival protection against cytokine death – cell-based, luminescence, retest, dose response (AID 449756); type: functional; conditions: Rattus norvegicus;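 note: cell death triggered by IL-1 beta plus TNF-alpha plus IFN-gamma mixture; protective hits raise ATP signal compared with cytokine alone wells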

**Q.** For `CCN(Cc1ccccc1)S(=O)(=O)c1ccc(C(=O)N(CCCN(C)C)c2nc3c(C)c(C)ccc3s2)cc1`, which EC50 [1] is on record?
**A.** 0.373 µM (active)

**Q.** And the EC50 [2]?
**A.** 5.55 µM (active)

**Q.** What about the AC50 [3] of the same molecule?
**A.** 11.6 µM (active)

**Q.** What about the EC50 [4] of the same molecule?
**A.** 78.9 µM (inactive)

**Q.** And the EC50 [5]?
**A.** 56.3 µM (inactive)

**Q.** What about the EC50 [6] of the same molecule?
**A.** > 92.4 µM (inactive)

**Q.** What about the AC50 [7] of the same molecule?
**A.** 18.9 µM (active)

**Q.** Which AC50 [8] does the source give for `c1ccc(P(c2ccccc2)c2ccccc2)cc1` here?
**A.** 14.1 µM (inconclusive)

**Q.** With `Cc1ccc(C(=O)NC(=S)Nc2ccccc2C(F)(F)F)cc1C` as the molecule, how does the IC50 [9] read?
**A.** 14.6 µM (active)

**Q.** And the IC50 [10]?
**A.** 6.91 µM (active)

**Q.** With `CCc1ccc(/C=C2/SC(=S)N(CCCC(=O)Nc3ccccc3C(=O)O)C2=O)cc1` as the molecule, how does the IC50 [11] read?
**A.** > 99 µM (inactive)

**Q.** What about the EC50 [12] of the same molecule?
**A.** 14 µM (inconclusive)

**Q.** And the EC50 [13]?
**A.** 4.17 µM (active)

**Q.** And the EC50 [14]?
**A.** 4.22 µM (active)

**Q.** And the CC50 [15]?
**A.** > 40 µM (active)

**Q.** What about the IC50 [16] of the same molecule?
**A.** 31.4 µM (active)

**Q.** What does the source list for `O=C(c1ccc(Cl)cc1)N1CCN(c2ncccn2)CC1`?
**A.** AC50 [17]: 2.91 µM (active); AC50 [18]: 3.81 µM (active); AC50 [19]: 17.6 µM (active); AC50 [20]: 0.57 µM (active)

**Q.** For `COc1cccc2sc(Nc3nnc(-c4ccccc4)o3)nc12`, which IC50 [21] is on record?
**A.** 12 µM (active)

**Q.** Which IC50 [22] does the source give for `O=C(Nc1cccc(C(F)(F)F)c1)c1cccc(NC(=O)c2ccc3nccnc3c2)c1` here?
**A.** > 80 µM (inactive)

**Q.** And the IC50 [23]?
**A.** > 80 µM (inactive)

**Q.** Which EC50 [12] does the source give for `CCC(C)(C)c1ccc(OCCCC[n+]2ccc(C)cc2)c(C(C)(C)CC)c1` here?
**A.** > 160 µM (inactive)

**Q.** And the EC50 [13]?
**A.** 0.344 µM (active)

**Q.** What about the CC50 [24] of the same molecule?
**A.** > 40 µM (active)

**Q.** What about the IC50 [25] of the same molecule?
**A.** > 20 µM (inactive)

**Q.** What about the IC50 [26] of the same molecule?
**A.** 4.32 µM (active)

**Q.** What about the IC50 [27] of the same molecule?
**A.** 12.6 µM (active)

**Q.** What about the IC50 [28] of the same molecule?
**A.** 62.2 µM (inactive)

**Q.** What about the IC50 [29] of the same molecule?
**A.** > 20 µM (inactive)

**Q.** What about the AC50 [30] of the same molecule?
**A.** 1.26 µM (active)
